Data published in publication PMC5517026, “Crystal structure and functional characterization of an isoaspartyl dipeptidase (CpsIadA) from Colwellia psychrerythraea strain 34H” (PLoS ONE, 2017).
Where a SMILES comes first, the peptide text is derived from it.

Assays:
CpsIadA [1] = biological target: T1, CpsIadA (Colwellia psychrerythraea, UniProt Q484B6); experiment: coupled spectrophotometric assay (aspartate aminotransferase/malate dehydrogenase, NADH at […] nm); assay type: biochemical; conditions: 100 mM HEPES pH 8.0, 100 mM KCl, 30°C
T1 construct: gene iadA; Ni-NTA and gel filtration; homo-octamer (314 kDa by AUC), two Zn ions per active site
T1 sequence (Q484B6 entry or part of it): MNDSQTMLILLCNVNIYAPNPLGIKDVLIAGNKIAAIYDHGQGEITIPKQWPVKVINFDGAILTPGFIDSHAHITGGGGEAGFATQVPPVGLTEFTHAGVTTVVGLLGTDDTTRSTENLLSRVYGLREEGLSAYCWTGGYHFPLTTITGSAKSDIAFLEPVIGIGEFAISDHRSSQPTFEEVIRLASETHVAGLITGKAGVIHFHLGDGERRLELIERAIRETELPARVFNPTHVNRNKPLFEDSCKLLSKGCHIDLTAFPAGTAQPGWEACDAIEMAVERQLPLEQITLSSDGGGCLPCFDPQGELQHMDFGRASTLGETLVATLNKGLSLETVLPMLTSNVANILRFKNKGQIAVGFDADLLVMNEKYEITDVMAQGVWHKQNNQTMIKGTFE

CpsIadA [2] = biological target: T1, CpsIadA; experiment: coupled assay with L-alanine dehydrogenase/diaphorase, INT reduction at […] nm; assay type: biochemical; conditions: 100 mM HEPES pH 8.0, 1.5 mM INT, 1.5 mM NAD+, 30°C
CpsIadA [3] = biological target: T2, CpsIadA (Colwellia psychrerythraea, UniProt Q484B6, E80Q, form not given); experiment: X-ray crystal structure of the complex ([…] Å); assay type: binding; conditions: active site, two Zn ions; 5 mM ligand added before crystallization; catalytically inactive mutant
T2 construct: gene iadA; Ni-NTA and gel filtration; homo-octamer (314 kDa by AUC), two Zn ions per active site
T2 sequence (Q484B6 entry or part of it E80Q, form open): as the sequence (Q484B6 entry or part of it) above, with E80Q counted along it

[4] = biological target: CpsIadA E80Q mutant (Colwellia psychrerythraea strain 34H) (UniProt Q484B6); experiment: crystal structure; CpsIadA E80Q mutant with 5 mM β-aspartyl lysine, 2.33 Å, space group P4212, two monomers in the asymmetric unit; 0.1 M Bis-Tris propane pH 7.0, 1 M ammonium citrate tribasic pH 7.0, 293 K
[5] = biological target: isoaspartyl dipeptidase from Colwellia psychrerythraea strain 34H (CpsIadA), wild type (Colwellia psychrerythraea strain 34H) (UniProt Q484B6); experiment: SEC; analytical size-exclusion chromatography; conditions not given; self-association (octamer)
[6] = biological target: isoaspartyl dipeptidase from Colwellia psychrerythraea strain 34H (CpsIadA), wild type (Colwellia psychrerythraea strain 34H) (UniProt Q484B6); experiment: AUC; sedimentation velocity, 20°C, 0.5 mg/mL CpsIadA, 25 mM Tris-HCl pH 8.0, 200 mM NaCl, 5 mM MgCl2, 2 mM dithiothreitol, 45,000 rpm, SEDFIT; self-association (octamer)
[7] = biological target: isoaspartyl dipeptidase from Colwellia psychrerythraea strain 34H (CpsIadA), wild type (Colwellia psychrerythraea strain 34H) (UniProt Q484B6); experiment: crystal structure; ligand-free wild type CpsIadA, 1.85 Å, space group P4212, two monomers in the asymmetric unit; 0.1 M Bis-Tris propane pH 7.0, 1.4 M sodium malonate, 293 K

Compound | Km (CpsIadA [1]) [µM] | other results
CC(C)C[C@H](NC(=O)[C@@H](N)CC(=O)O)C(=O)O [α-Asp-Leu] (H-Asp-Leu-OH) | 6900 ± 400 | –
C[C@H](NC(=O)CCN)C(=O)O [β-Ala-Ala] | – | Km (CpsIadA [2]): 930 ± 300 µM
C[C@H](NC(=O)C[C@H](N)C(=O)O)C(=O)O [β-Asp-Ala] | 1200 ± 300 | –
N[C@@H](CC(=O)NCC(=O)O)C(=O)O [β-Asp-Gly] | 4700 ± 400 | –
N[C@@H](CC(=O)N[C@@H](Cc1c[nH]cn1)C(=O)O)C(=O)O [β-Asp-His] | 5300 ± 500 | –
CpsIadA E80Q mutant (from UniProt Q484B6 1-395) (enzyme) | – | stoichiometry N [4]: 8
isoaspartyl dipeptidase from Colwellia psychrerythraea strain 34H (CpsIadA), wild type (from UniProt Q484B6 1-395) (enzyme) | – | stoichiometry N [5]: 8; stoichiometry N [6]: 8; stoichiometry N [7]: 8

More lines, main results first:

Km (CpsIadA [1]) [µM] | Compound | other results
710 ± 80 | CC(C)C[C@H](NC(=O)C[C@H](N)C(=O)O)C(=O)O [β-Asp-Leu] | –
1100 ± 90 | NCCCC[C@H](NC(=O)C[C@H](N)C(=O)O)C(=O)O [β-Asp-Lys] | X-ray crystal structure of the complex (2.33 Å) (CpsIadA [3]): β-isoaspartyl lysine bound CpsIadA E80Q mutant have been deposited in the Protein Data Bank
490 ± 90 | N[C@@H](CC(=O)N[C@@H](Cc1ccccc1)C(=O)O)C(=O)O [β-Asp-Phe] | –
